According to patent US12582122B2, “Herbicidal compositions comprising clethodim” (BASF SE, priority 2024, dated 2026):

Tested on: Digitaria insularis (DIGIN)
Assay: Post-emergence application in field trials, herbicidal activity (damage 0-100% vs untreated control)
Type: in vivo
Details: solo, post-emergence field trial, 21 DAT, 0.5% MSO; for % herbicidal activity B: 240 g ai/ha; for % herbicidal activity A-1: 50 g ai/ha
Experimental: In the examples below, using the method of S. R. Colby (1967) “Calculating synergistic and antagonistic responses of herbicide combinations”, Weeds 15, p. 22ff., the value E, which is expected if the activity of the individual active compounds is only additive, was calculated:
[formula] • where • X=percent activity using active herbicide A at an application rate a; • Y=percent activity using active herbicide B (e.g. clethodim) at an application rate b; • E=expected activity (in %) by A+B at application rates a+b.
If the value found experimentally is higher than the value E calculated according to Colby, a synergistic effect is present.
On field test sites, natural weed infestation or seeded weeds were treated post-emergence of the weeds.
In the field trials, the weeds were treated as indicated below.
In the following experiments, the herbicidal activity for the individual herbicidal compositions (solo and mixture applications) was assessed at the indicated days after treatment (DAT). The assessments for the damage on undesired weeds caused by the composition was carried out using a scale from 0 to 100%, compared to the untreated control plants. Here, 0 means no damage and 100 means complete destruction of the plants.
Herbicide A-1 and clethodim were, together with addition of 0.5% MSO (methylated sed oil) as adjuvant, formulated in water as distribution medium (water volume 200 l/ha) and sprayed with commercial flat fan nozzles.

Structure (SMILES) | % herbicidal activity B (DIGIN height 5-15 cm) | % herbicidal activity B (DIGIN height 60-80 cm) | % herbicidal activity A-1 (DIGIN height 5-15 cm) | % herbicidal activity A-1 (DIGIN height 60-80 cm)
CCSC(C)CC1CC(=O)C(/C(CC)=N/OC/C=C/Cl)=C(O)C1 (stereo not shown) [B, clethodim] | 68% | 57% |  | 
CCOC(=O)COc1ccccc1Oc1nc(-n2c(=O)cc(C(F)(F)F)n(C)c2=O)c(F)cc1Cl [A-1, ethyl 2-[2-[[3-chloro-5-fluoro-6-[3-methyl-2,6-dioxo-4-(trifluoromethyl)pyrimidin-1-yl]-2-pyridyl]oxy]phenoxy]acetate] |  |  | 57% | 62%
